Experimental data: US10189842B2 (Agency for Science, Technology and Research, priority 2013, dated 2019)

Test system: HEK293-STF3A cells
Assay: STF3A assay (luciferase reporter)
Assay type: cell-based, Human
Conditions: Homo sapiens, 24 h, 1 day of treatment
From the text: HEK293-STF cell line was modified from Human embryonic kidney cell line HEK293 transfected with the STF reporter. HEK293-STF3A cell line was further modified from HEK293-STF cell line to express Wnt3A. This cell line was used to identify compounds that regulate either early or late signaling components of the Wnt pathway. These two cell lines were obtained from David Virshup's laboratory, Duke-NUS. L-Wnt3A (ATCC, #CRL-2647) cell line was used for providing Wnt3A conditioned media. The three cell lines were grown in DMEM with 10% FBS incubated in 37° C. with 5% CO2.
2×10^4 HEK293-STF3A cells in 75 μl culture media were seeded in each well of white 96 well plates (Greiner #655098) and incubated overnight at 37° C. 25 μl serially diluted compound was added to the cells to give final concentration of 50 μM to 1.5 nM. After 1 day of treatment, 100 μl of Steady-Glo Luciferase Assay reagent (#E2520, Promega) was added to each well and incubated for 10 minutes at room temperature. Luminescence was measured using Tecan Safire2 plate reader.

Structure (SMILES)	IC50
Cc1cc2n(n1)CCCN2C(=O)CCC(=O)Nc1ccc(-c2cccc(N)c2)cc1 [Compound 70, N-(3′-amino-[1,1′-biphenyl]-4-yl)-4-(2-methyl-6,7-dihydropyrazolo[1,5-a]pyrimidin-4(5H)-yl)-4-oxobutanamide]	< 100 nM
Cc1cc2n(n1)CCCN2C(=O)CCC(=O)Nc1ccc(-c2cnccn2)cn1 [Compound 50, 4-(2-methyl-6,7-dihydropyrazolo[1,5-a]pyrimidin-4(5H)-yl)-4-oxo-N-(5-(pyrazin-2-yl)pyridin-2-yl)butanamide]	< 100 nM
Cc1cc2n(n1)CCCN2C(=O)CCC(=O)Nc1ccc(C2CCN(C)CC2)cc1 [Compound 82, 4-(2-methyl-6,7-dihydropyrazolo[1,5-a]pyrimidin-4(5H)-yl)-N-(4-(1-methylpiperidin-4-yl)phenyl)-4-oxobutanamide]	> 10000 nM
Cc1cncc(-c2ccc(NC(=O)CCC(=O)N3CCCn4nc(C)cc43)nn2)c1 [Compound 104, 4-(2-methyl-6,7-dihydropyrazolo[1,5-a]pyrimidin-4(5H)-yl)-N-(6-(5-methylpyridin-3-yl)pyridazin-3-yl)-4-oxobutanamide]	< 100 nM
Cc1cc2n(n1)CCCN2C(=O)CCC(=O)Nc1ccc(-c2cncnc2)cn1 [Compound 153, 4-(2-methyl-6,7-dihydropyrazolo[1,5-a]pyrimidin-4(5H)-yl)-4-oxo-N-(5-(pyrimidin-5-yl)pyridin-2-yl)butanamide]	< 100 nM
Cc1cc2n(n1)CCCN2C(=O)CCC(=O)Nc1ccc(-c2cccc(F)c2)cn1 [Compound 89, N-(5-(3-fluorophenyl)pyridin-2-yl)-4-(2-methyl-6,7-dihydropyrazolo[1,5-a]pyrimidin-4(5H)-yl)-4-oxobutanamide]	< 100 nM
Cc1cc2n(n1)CC(C)CN2C(=O)CCC(=O)Nc1ccc(-c2cncc(F)c2)cn1 (stereo not drawn) [Compound 163, 4-(2,6-dimethyl-6,7-dihydropyrazolo[1,5-a]pyrimidin-4(5H)-yl)-N-(5′-fluoro-[3,3′-bipyridin]-6-yl)-4-oxobutanamide]	< 100 nM
Cc1cc2n(n1)CCCN2C(=O)CCC(=O)Nc1cc(-c2cccc(Cl)c2)no1 [Compound 3, N-(3-(3-chlorophenyl)isoxazol-5-yl)-4-(2-methyl-6,7-dihydropyrazolo[1,5-a]pyrimidin-4(5H)-yl)-4-oxobutanamide]	< 100 nM
Cc1cc2n(n1)CCCN2C(=O)CCC(=O)N(C)c1cc(-c2cccc(Cl)c2)no1 [Compound 130, N-(3-(3-chlorophenyl)isoxazol-5-yl)-N-methyl-4-(2-methyl-6,7-dihydropyrazolo[1,5-a]pyrimidin-4(5H)-yl)-4-oxobutanamide]	> 10000 nM
Cc1cncc(-c2cnc(NC(=O)CCC(=O)N3CCCn4nc(C)cc43)cc2C)c1 [Compound 120, N-(4,5′-dimethyl-3,3′-bipyridin-6-yl)-4-(2-methyl-6,7-dihydropyrazolo[1,5-a]pyrimidin-4(5H)-yl)-4-oxobutanamide]	< 5000 nM
Cc1cc2n(n1)CCCN2C(=O)CCC(=O)Nc1cc(-c2cncc(Cl)c2)no1 [Compound 18, N-[3-(5-chloropyridin-3-yl)-1,2-oxazol-5-yl]-4-{2-methyl-5H,6H,7H-pyrazolo[1,5-a]pyrimidin-4-yl}-4-oxobutanamide]	< 5000 nM
Cc1cc2n(n1)CCCN2C(=O)CCC(=O)Nc1cc(-c2ccc(Cl)cc2)no1 [Compound 5, N-(3-(4-chlorophenyl)isoxazol-5-yl)-4-(2-methyl-6,7-dihydropyrazolo[1,5-a]pyrimidin-4(5H)-yl)-4-oxobutanamide]	< 100 nM
Cc1cncc(-c2cnc(NC(=O)CCC(=O)N3CCCn4nc(C)cc43)cn2)c1 [Compound 124, 4-(2-methyl-6,7-dihydropyrazolo[1,5-a]pyrimidin-4(5H)-yl)-N-(5-(5-methylpyridin-3-yl)pyrazin-2-yl)-4-oxobutanamide]	< 100 nM
Cc1cc2n(n1)CCCN2C(=O)CCC(=O)Nc1oncc1-c1ccccc1 [Compound 4, 4-(2-methyl-6,7-dihydropyrazolo[1,5-a]pyrimidin-4(5H)-yl)-4-oxo-N-(4-phenylisoxazol-5-yl)butanamide]	> 10000 nM
Cc1cc2n(n1)CCCN2C(=O)CCC(=O)Nc1ccc(-c2cncc(N)c2)nc1 [Compound 112, N-(5′-amino-2,3′-bipyridin-5-yl)-4-(2-methyl-6,7-dihydropyrazolo[1,5-a]pyrimidin-4(5H)-yl)-4-oxobutanamide]	< 1000 nM
Cc1cncc(-c2ccc(NC(=O)CCC(=O)N3CCCn4nc(C)cc43)nc2)c1 [Compound 116, 4-(2-methyl-6,7-dihydropyrazolo[1,5-a]pyrimidin-4(5H)-yl)-N-(5′-methyl-[3,3′-bipyridin]-6-yl)-4-oxobutanamide]	< 100 nM
CCc1cc2n(n1)CCCN2C(=O)CCC(=O)Nc1cc(-c2cccc(Cl)c2)no1 [Compound 137, N-(3-(3-chlorophenyl)isoxazol-5-yl)-4-(2-ethyl-6,7-dihydropyrazolo[1,5-a]pyrimidin-4(5H)-yl)-4-oxobutanamide]	< 100 nM

Structure (SMILES)	IC50
CC(=O)Nc1cccc(-c2ccc(NC(=O)CCC(=O)N3CCCn4nc(C)cc43)cc2)c1 [Compound 74, N-(3′-acetamido-[1,1′-biphenyl]-4-yl)-4-(2-methyl-6,7-dihydropyrazolo[1,5-a]pyrimidin-4(5H)-yl)-4-oxobutanamide]	< 5000 nM
Cc1cc2n(n1)CCCN2C(=O)CCC(=O)Nc1cc(-c2cccc(Cl)c2)nn1C [Compound 21, N-(3-(3-chlorophenyl)-1-methyl-1H-pyrazol-5-yl)-4-(2-methyl-6,7-dihydropyrazolo[1,5-a]pyrimidin-4(5H)-yl)-4-oxobutanamide]	> 10000 nM
Cc1cccc(-c2ccc(NC(=O)CCC(=O)N3CCCn4nc(C)cc43)nc2)c1 [Compound 93, 4-(2-methyl-6,7-dihydropyrazolo[1,5-a]pyrimidin-4(5H)-yl)-4-oxo-N-(5-(m-tolyl)pyridin-2-yl)butanamide]	< 100 nM
Cc1ccc(-c2cnc(NC(=O)CCC(=O)N3CCCn4nc(C)cc43)cn2)cn1 [Compound 127, 4-(2-methyl-6,7-dihydropyrazolo[1,5-a]pyrimidin-4(5H)-yl)-N-(5-(6-methylpyridin-3-yl)pyrazin-2-yl)-4-oxobutanamide]	< 1000 nM
Cc1ccc(-c2ccc(NC(=O)CCC(=O)N3CCCn4nc(C)cc43)cn2)cn1 [Compound 113, 4-(2-methyl-6,7-dihydropyrazolo[1,5-a]pyrimidin-4(5H)-yl)-N-(6′-methyl-[2,3′-bipyridin]-5-yl)-4-oxobutanamide]	< 100 nM
Cc1cc2n(n1)CC(C)CN2C(=O)CCC(=O)Nc1ccc(-c2ccccn2)cn1 (stereo not drawn) [Compound 171, N-([2,3′-bipyridin]-6′-yl)-4-(2,6-dimethyl-6,7-dihydropyrazolo[1,5-a]pyrimidin-4(5H)-yl)-4-oxobutanamide]	< 100 nM
Cc1cc2n(n1)CCCN2C(=O)CCC(=O)NC1CCC(c2ccccc2)CC1 (stereo not drawn) [Compound 80, 4-(2-methyl-6,7-dihydropyrazolo[1,5-a]pyrimidin-4(5H)-yl)-4-oxo-N-(4-phenylcyclohexyl)butanamide]	> 10000 nM
Cc1cccc(-c2ccc(NC(=O)CCC(=O)N3CCCn4nc(C)cc43)nc2)n1 [Compound 96, 4-(2-methyl-6,7-dihydropyrazolo[1,5-a]pyrimidin-4(5H)-yl)-N-(6-methyl-[2,3′-bipyridin]-6′-yl)-4-oxobutanamide]	< 100 nM
Cc1cc2n(n1)CCCN2C(=O)CCC(=O)Nc1ccc(-c2ccncc2)cc1 [Compound 36, 4-(2-methyl-6,7-dihydropyrazolo[1,5-a]pyrimidin-4(5H)-yl)-4-oxo-N-(4-(pyridin-4-yl)phenyl)butanamide]	< 1000 nM
Cc1cc2n(n1)CCCN2C(=O)CCC(=O)Nc1ccc(-c2ccc(Cl)cc2)nn1 [Compound 100, N-[6-(4-chlorophenyl)pyridazin-3-yl]-4-{2-methyl-5H,6H,7H-pyrazolo[1,5-a]pyrimidin-4-yl}-4-oxobutanamide]	< 100 nM
Cc1cc2n(n1)CCCN2CCCCNc1cc(-c2cccc(Cl)c2)no1 [Compound 131, 3-(3-chlorophenyl)-N-(4-(2-methyl-6,7-dihydropyrazolo[1,5-a]pyrimidin-4(5H)-yl)butyl)isoxazol-5-amine]	> 10000 nM
Cc1cc2n(n1)CCCN2C(=O)CCC(=O)Nc1nc(-c2cccc(Cl)c2)no1 [Compound 22, N-(3-(3-chlorophenyl)-1,2,4-oxadiazol-5-yl)-4-(2-methyl-6,7-dihydropyrazolo[1,5-a]pyrimidin-4(5H)-yl)-4-oxobutanamide]	> 10000 nM
Cc1cc2n(n1)CCCN2C(=O)CCC(=O)Nc1ccc(-c2cccc(F)c2)nc1 [Compound 84, N-(6-(3-fluorophenyl)pyridin-3-yl)-4-(2-methyl-6,7-dihydropyrazolo[1,5-a]pyrimidin-4(5H)-yl)-4-oxobutanamide]	< 100 nM
Cc1cc2n(n1)CCCN2C(=O)CCC(=O)Nc1ccc(-c2ccc(F)cc2)nn1 [Compound 101, N-(6-(4-fluorophenyl)pyridazin-3-yl)-4-(2-methyl-6,7-dihydropyrazolo[1,5-a]pyrimidin-4(5H)-yl)-4-oxobutanamide]	< 100 nM
Cc1cc2n(n1)CCCN2C(=O)CCC(=O)Nc1ccc(-c2cncc(F)c2)nc1 [Compound 109, N-(5′-fluoro-[2,3′-bipyridin]-5-yl)-4-(2-methyl-6,7-dihydropyrazolo[1,5-a]pyrimidin-4(5H)-yl)-4-oxobutanamide]	< 100 nM
Cc1cc2n(n1)CCCN2C(=O)CCC(=O)Nc1ccc(-c2ccccc2)cn1 [Compound 44, 4-(2-methyl-6,7-dihydropyrazolo[1,5-a]pyrimidin-4(5H)-yl)-4-oxo-N-(5-phenylpyridin-2-yl)butanamide]	< 100 nM
